Assay results as given in ChEMBL document CHEMBL5653615 (J Biol Chem, 2013).

Experiments:
[1] = target: Casein kinase I isoform gamma-1 (Homo sapiens) (UniProt Q9HCP0); experiment: Inhibition of human CK1g1 at 500 nM by HotSpot assay relative to control
[2] = target: Calcium/calmodulin-dependent protein kinase type II subunit delta (Homo sapiens) (UniProt Q13557); experiment: Inhibition of human CAMK2d at 1.82 nM by HotSpot assay relative to control
[3] = target: Mitogen-activated protein kinase 10 (Homo sapiens) (UniProt P53779); experiment: Inhibition of human JNK3 at 1.82 nM by HotSpot assay relative to control
[4] = target: SRSF protein kinase 1 (Homo sapiens) (UniProt Q96SB4); experiment: Inhibition of human SRPK1 at 1.82 nM by HotSpot assay relative to control
[5] = target: Death-associated protein kinase 1 (Homo sapiens) (UniProt P53355); experiment: Inhibition of human DAPK1 at 1.82 nM by HotSpot assay relative to control
[6] = target: SRSF protein kinase 3 (Homo sapiens) (UniProt Q9UPE1); experiment: Inhibition of human STK23 at 1.82 nM by HotSpot assay relative to control
[7] = target: T1, Dual specificity mitogen-activated protein kinase kinase 6 (Homo sapiens) (UniProt P52564); experiment: Inhibition of human MKK6 at 18.6 nM by HotSpot assay relative to control
T1 sequence (whole entry): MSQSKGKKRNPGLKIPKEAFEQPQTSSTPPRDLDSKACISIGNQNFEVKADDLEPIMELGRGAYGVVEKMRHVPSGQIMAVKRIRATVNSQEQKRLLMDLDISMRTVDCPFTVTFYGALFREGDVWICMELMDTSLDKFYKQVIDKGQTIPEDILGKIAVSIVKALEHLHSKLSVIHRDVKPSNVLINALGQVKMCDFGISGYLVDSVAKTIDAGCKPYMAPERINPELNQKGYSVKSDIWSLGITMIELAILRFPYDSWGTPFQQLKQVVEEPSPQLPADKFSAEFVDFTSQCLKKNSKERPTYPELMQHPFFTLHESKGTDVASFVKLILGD

[8] = target: Tyrosine-protein kinase Lck (Homo sapiens) (UniProt P06239); experiment: Inhibition of human LCK at 18.6 nM by HotSpot assay relative to control
[9] = target: Mitogen-activated protein kinase 3 (Homo sapiens) (UniProt P27361); experiment: Inhibition of human ERK1 at 18.6 nM by HotSpot assay relative to control
[10] = target: Phosphorylase b kinase gamma catalytic chain, skeletal muscle/heart isoform (Homo sapiens) (UniProt Q16816); experiment: Inhibition of human PHKg1 at 18.6 nM by HotSpot assay relative to control
[11] = target: T2, Serine/threonine-protein kinase Chk1 (Homo sapiens) (UniProt O14757); experiment: Inhibition of human CHK1 at 18.6 nM by HotSpot assay relative to control
T2 sequence (whole entry): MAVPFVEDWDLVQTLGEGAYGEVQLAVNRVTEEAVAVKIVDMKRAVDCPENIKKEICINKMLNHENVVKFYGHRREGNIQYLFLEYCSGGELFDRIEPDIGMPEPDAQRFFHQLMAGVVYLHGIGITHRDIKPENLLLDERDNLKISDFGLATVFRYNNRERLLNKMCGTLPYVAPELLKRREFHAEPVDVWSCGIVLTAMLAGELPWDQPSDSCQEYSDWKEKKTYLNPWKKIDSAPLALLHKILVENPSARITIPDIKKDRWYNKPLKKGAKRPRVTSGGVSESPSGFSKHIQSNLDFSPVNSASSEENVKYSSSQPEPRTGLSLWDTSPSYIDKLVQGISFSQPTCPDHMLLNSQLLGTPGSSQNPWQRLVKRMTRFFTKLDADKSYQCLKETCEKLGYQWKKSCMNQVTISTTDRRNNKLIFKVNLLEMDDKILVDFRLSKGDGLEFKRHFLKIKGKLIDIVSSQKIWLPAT

[12] = target: Tyrosine-protein kinase Srms (Homo sapiens) (UniProt Q9H3Y6); experiment: Inhibition of human SRMS at 18.6 nM by HotSpot assay relative to control
[13] = target: Death-associated protein kinase 2 (Homo sapiens) (UniProt Q9UIK4); experiment: Inhibition of human DAPK2 at 18.6 nM by HotSpot assay relative to control
[14] = target: Serine/threonine-protein kinase 25 (Homo sapiens) (UniProt O00506); experiment: Inhibition of human YSK1 at 18.6 nM by HotSpot assay relative to control
[15] = target: Serine/threonine-protein kinase 10 (Homo sapiens) (UniProt O94804); experiment: Inhibition of human LOK at 18.6 nM by HotSpot assay relative to control
[16] = target: Serine/threonine-protein kinase 26 (Homo sapiens) (UniProt Q9P289); experiment: Inhibition of human MST4 at 18.6 nM by HotSpot assay relative to control
[17] = target: Angiopoietin-1 receptor (Homo sapiens) (UniProt Q02763); experiment: Inhibition of human TEK at 18.6 nM by HotSpot assay relative to control
[18] = target: Tyrosine-protein kinase Fer (Homo sapiens) (UniProt P16591); experiment: Inhibition of human FER at 18.6 nM by HotSpot assay relative to control
[19] = target: Casein kinase II subunit alpha' (Homo sapiens) (UniProt P19784); experiment: Inhibition of human CK2a2 at 18.6 nM by HotSpot assay relative to control
[20] = target: Cyclin-dependent kinase 5/CDK5 activator 1 (Homo sapiens) (UniProt Q00535+Q15078); experiment: Inhibition of human CDK5/p25 at 18.6 nM by HotSpot assay relative to control; assay type: protein-complex assay
[21] = target: Serine/threonine-protein kinase OSR1 (Homo sapiens) (UniProt O95747); experiment: Inhibition of human OXSR1 at 18.6 nM by HotSpot assay relative to control
Chain of Serine/threonine-protein kinase OSR1 (Homo sapiens) (O95747 whole entry, looked up): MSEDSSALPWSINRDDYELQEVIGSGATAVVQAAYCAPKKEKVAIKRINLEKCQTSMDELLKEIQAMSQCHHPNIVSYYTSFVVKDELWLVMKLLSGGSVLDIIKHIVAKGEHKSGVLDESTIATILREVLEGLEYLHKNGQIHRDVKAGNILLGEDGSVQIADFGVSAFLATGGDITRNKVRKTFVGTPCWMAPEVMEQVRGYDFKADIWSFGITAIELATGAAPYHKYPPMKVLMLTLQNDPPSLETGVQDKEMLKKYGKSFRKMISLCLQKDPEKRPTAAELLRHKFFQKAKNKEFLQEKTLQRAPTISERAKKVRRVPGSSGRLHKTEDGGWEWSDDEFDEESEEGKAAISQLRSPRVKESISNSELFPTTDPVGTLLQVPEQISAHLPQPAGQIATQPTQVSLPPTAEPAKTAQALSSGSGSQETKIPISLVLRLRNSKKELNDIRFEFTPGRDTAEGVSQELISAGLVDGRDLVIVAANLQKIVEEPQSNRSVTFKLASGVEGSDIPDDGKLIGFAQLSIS

Chain of SRSF protein kinase 1 (Homo sapiens) (Q96SB4 whole entry): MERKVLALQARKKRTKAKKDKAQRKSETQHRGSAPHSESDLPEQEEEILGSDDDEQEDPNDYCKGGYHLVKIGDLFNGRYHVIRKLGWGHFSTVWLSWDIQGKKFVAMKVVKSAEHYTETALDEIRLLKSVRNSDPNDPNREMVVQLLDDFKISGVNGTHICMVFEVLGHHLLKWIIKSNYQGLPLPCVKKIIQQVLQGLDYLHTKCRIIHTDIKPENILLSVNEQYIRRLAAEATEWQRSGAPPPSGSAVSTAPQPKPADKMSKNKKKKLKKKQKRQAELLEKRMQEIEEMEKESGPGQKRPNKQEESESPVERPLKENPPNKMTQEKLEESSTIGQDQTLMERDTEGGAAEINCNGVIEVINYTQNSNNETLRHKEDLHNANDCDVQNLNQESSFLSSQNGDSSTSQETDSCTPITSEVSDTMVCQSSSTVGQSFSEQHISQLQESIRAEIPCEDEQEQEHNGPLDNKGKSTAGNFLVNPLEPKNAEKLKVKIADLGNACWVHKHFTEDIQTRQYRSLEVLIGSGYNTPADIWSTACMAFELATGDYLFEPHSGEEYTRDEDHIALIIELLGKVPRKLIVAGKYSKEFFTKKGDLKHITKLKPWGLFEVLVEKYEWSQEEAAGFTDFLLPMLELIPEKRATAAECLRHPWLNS
Chain of Angiopoietin-1 receptor (Homo sapiens) (Q02763 whole entry): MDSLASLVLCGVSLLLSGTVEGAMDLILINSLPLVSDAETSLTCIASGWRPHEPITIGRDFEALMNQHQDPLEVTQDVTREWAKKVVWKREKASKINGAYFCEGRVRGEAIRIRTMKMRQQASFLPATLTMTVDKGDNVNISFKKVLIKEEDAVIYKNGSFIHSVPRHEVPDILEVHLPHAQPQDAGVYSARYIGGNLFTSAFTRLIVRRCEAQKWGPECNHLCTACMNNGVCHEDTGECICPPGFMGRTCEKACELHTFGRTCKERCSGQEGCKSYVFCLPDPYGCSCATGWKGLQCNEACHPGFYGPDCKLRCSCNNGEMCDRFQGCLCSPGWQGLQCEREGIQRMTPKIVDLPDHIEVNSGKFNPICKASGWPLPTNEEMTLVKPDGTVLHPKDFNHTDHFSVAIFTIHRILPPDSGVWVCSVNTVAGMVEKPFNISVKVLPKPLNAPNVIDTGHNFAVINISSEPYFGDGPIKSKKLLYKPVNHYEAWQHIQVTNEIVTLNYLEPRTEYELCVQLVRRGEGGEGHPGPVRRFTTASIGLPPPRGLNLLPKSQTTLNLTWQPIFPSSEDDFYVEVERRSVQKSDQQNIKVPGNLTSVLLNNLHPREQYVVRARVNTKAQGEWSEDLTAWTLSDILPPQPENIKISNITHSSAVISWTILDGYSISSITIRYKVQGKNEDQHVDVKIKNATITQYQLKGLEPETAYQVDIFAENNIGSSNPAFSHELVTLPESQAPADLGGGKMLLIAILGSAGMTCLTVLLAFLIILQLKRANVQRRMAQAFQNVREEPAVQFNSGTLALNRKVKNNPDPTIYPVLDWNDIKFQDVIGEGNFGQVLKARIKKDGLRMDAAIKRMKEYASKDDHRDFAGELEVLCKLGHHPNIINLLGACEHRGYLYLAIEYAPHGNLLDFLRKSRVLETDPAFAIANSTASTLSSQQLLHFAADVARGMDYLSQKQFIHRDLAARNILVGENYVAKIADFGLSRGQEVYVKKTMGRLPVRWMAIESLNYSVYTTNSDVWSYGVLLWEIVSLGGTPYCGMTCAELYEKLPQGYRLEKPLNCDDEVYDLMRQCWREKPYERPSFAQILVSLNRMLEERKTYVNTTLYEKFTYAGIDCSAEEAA
Chain of Cyclin-dependent kinase 5/CDK5 activator 1 (Homo sapiens) (Q00535 whole entry): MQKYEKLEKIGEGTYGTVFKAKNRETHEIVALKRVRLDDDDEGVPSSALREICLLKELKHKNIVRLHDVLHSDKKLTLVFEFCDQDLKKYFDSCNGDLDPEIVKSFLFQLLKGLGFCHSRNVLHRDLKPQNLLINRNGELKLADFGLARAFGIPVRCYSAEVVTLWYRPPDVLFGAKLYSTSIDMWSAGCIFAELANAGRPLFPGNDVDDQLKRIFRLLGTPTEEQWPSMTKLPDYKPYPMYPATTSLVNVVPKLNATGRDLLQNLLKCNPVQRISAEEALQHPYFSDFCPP
Chain of Cyclin-dependent kinase 5/CDK5 activator 1 (Homo sapiens) (Q15078 99-307 partner limits assumed): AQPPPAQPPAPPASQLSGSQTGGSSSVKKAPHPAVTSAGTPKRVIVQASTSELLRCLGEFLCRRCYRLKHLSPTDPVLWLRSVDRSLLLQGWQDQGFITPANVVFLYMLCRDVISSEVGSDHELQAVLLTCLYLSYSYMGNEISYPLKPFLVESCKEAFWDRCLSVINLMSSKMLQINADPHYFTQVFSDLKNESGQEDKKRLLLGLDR
Chain of Tyrosine-protein kinase Fer (Homo sapiens) (P16591 whole entry, looked up): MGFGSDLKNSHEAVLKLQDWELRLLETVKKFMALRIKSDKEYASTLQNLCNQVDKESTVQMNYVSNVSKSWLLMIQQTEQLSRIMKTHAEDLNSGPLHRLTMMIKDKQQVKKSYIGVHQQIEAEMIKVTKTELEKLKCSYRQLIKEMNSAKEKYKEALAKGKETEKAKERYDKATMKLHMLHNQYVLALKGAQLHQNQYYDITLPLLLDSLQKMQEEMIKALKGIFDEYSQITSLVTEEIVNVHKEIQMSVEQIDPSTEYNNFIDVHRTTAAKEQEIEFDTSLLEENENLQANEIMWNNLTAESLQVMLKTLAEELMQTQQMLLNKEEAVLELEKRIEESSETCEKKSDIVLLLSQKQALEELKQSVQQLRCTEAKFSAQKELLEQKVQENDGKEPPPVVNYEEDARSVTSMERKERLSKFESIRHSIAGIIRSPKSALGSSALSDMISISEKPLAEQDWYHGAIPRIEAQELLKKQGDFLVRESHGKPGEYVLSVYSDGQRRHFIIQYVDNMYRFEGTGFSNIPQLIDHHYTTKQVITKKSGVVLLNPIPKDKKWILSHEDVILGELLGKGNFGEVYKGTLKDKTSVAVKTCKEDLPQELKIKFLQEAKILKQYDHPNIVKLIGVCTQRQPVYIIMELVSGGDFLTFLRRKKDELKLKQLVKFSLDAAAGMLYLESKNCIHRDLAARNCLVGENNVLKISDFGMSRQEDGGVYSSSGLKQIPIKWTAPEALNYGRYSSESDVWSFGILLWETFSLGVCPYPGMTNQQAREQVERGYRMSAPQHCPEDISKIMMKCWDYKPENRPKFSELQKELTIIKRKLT
Chain of Serine/threonine-protein kinase 10 (Homo sapiens) (O94804 whole entry, looked up): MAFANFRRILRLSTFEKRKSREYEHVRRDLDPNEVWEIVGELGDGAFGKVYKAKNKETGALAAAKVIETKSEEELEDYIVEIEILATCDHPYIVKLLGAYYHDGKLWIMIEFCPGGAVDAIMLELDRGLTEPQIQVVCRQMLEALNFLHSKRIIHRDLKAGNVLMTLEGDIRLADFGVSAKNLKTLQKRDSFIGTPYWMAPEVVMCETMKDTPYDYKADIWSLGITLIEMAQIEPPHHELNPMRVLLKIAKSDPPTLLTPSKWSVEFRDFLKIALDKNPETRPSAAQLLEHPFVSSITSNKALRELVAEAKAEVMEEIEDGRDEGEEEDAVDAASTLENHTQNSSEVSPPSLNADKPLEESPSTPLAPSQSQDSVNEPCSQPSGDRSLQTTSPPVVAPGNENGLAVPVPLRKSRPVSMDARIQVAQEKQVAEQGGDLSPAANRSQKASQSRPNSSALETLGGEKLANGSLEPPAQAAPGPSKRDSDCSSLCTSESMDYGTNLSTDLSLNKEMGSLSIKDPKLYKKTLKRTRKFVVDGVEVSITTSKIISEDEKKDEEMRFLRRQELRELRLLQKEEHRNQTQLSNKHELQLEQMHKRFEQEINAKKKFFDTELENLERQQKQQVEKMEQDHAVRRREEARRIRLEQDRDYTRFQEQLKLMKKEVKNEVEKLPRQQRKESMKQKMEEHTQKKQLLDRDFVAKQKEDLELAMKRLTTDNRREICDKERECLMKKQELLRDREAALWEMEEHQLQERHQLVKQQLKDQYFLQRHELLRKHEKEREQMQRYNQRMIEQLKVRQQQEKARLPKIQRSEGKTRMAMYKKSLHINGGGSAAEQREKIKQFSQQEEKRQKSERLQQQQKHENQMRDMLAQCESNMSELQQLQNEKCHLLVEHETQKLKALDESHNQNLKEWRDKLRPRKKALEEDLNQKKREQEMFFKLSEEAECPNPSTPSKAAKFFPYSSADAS
Chain of Phosphorylase b kinase gamma catalytic chain, skeletal muscle/heart isoform (Homo sapiens) (Q16816 whole entry, looked up, canonical isoform): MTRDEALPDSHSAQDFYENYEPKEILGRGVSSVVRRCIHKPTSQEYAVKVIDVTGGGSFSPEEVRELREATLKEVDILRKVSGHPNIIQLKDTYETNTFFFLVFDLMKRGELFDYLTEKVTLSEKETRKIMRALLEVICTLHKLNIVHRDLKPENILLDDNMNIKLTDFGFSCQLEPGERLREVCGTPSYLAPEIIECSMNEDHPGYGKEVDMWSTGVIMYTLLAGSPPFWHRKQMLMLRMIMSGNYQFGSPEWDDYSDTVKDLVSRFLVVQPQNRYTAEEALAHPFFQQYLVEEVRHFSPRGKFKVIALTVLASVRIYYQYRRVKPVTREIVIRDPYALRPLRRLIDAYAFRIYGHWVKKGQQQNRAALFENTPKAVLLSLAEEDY

## Nc1n[nH]c2nnc(-c3c(-c4ccccc4)nn4ccccc34)cc12
[1]
  inhibition: -3.88%

## C[C@@]1(C(=O)Nc2ccc(F)nc2)CCCN1c1nc(Nc2cc(C3CC3)n[nH]2)c2cccn2n1
[2]
  inhibition: -2.72%
[3]
  inhibition: -8.84%
[4]
  inhibition: -4.32%
[5]
  inhibition: 3.56%
[6]
  inhibition: -7.78%

## C[C@]1(O)C[C@@H](c2nc(-c3ccc4ccc(-c5ccccc5)nc4c3)c3c(N)nccn32)C1
[7]
  inhibition: 1.97%
[8]
  inhibition: 6.33%
[9]
  inhibition: -9.66%
[10]
  inhibition: 6.05%
[11]
  inhibition: -5.11%
[12]
  inhibition: -0.53%
[13]
  inhibition: 0.74%
[14]
  inhibition: -3.04%
[15]
  inhibition: 9.09%
[16]
  inhibition: -2.21%
[17]
  inhibition: 2.86%
[18]
  inhibition: -4.79%
[19]
  inhibition: 38.2%
[20]
  inhibition: 4.12%
[21]
  inhibition: -6.49%
